Experimental data: ChEMBL document CHEMBL5131572, “Identification of a Potent, Selective, and Brain-Penetrant Rho Kinase Inhibitor and its Activity in a Mouse Model of Huntington's Disease” (J Med Chem, 2022)
pEC50, pIC50: −log10 of the molar value. ≈ marks a conversion by molar mass, not a printed value.

Tests used:
[1] = Inhibition of ROCK in rat A7R5 cells assessed as cofilin serine 3 phosphorylation incubated for 1 hr by ICW assay; details: A7R5, 1 h
[2] = Kinetic solubility of the compound in pH 7.4 PBS buffer incubated for 2 hrs using orbital shaker by LC-UV mass spectrometry; type: physicochemical; details: read-out: Kinetic_solubility
[3] = Distribution coefficient, logD of compound by chromatographic method; type: physicochemical; details: octanol/water
[4] = Lipophilicity, logP of compound; type: physicochemical; details: octanol/water
[5] = Apparent permeability in MDCK-MDR1 cells at 10 uM after 1 hr by LC-MS/MS analysis; type: ADME, cell-based, Canis lupus familiaris; details: dog
[6] = Metabolic stability in mouse liver microsomes assessed as intrinsic clearance at 1 uM measured upto 40 mins in presence of NADPH by LC-MS/MS analysis; type: ADME, Microsome; details: read-out: CLH
[7] = target: T1, cGMP-dependent protein kinase 1 (Homo sapiens, UniProt Q13976); experiment: Inhibition of full length recombinant N-terminal GST-tagged human PKG expressed in baculovirus infected Sf9 insect cells using RSK as substrate preincubated for 15 mins followed by substrate addition and measured after 30 mins in presence of ATP by ADP Glo kinase assay
T1 sequence (Q13976 whole entry): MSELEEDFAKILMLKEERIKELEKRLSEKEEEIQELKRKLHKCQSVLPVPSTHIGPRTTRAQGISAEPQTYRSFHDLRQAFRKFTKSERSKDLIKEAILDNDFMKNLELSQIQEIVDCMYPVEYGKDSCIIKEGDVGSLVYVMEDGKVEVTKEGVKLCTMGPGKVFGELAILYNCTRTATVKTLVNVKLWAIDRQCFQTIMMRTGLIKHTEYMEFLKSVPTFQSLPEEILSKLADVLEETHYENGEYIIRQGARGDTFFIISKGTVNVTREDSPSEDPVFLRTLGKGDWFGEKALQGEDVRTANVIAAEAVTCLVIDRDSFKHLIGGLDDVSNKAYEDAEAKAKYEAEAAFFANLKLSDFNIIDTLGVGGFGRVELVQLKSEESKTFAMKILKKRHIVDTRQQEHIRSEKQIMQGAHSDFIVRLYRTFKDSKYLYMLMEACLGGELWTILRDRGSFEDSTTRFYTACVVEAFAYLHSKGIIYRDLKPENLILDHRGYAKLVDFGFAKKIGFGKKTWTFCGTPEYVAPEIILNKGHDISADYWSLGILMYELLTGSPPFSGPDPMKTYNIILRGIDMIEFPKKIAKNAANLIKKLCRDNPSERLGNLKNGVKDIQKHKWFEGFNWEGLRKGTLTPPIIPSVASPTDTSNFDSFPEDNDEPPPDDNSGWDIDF

MDR1 = experiment: in vitro; details: dog, MDCK-MDR1
Description: Efflux ratio of apparent permeability across basolateral to apical side to apical to basolateral side in MDCK-MDR1 cells at 10 uM measured after 1 hr by LC-MS/MS analysis

[8] = target: Rho-associated protein kinase 2 (Homo sapiens, UniProt O75116); experiment: Inhibition of recombinant N-terminal GST-tagged human ROCK2 (5 to 554 residues) expressed in baculovirus infected Sf9 cells using S6K as substrate incubated for 30 mins in presence of ATP by ADP Glo kinase assay
Cytochrome P450 1A2 = target: T2, Cytochrome P450 1A2 (Homo sapiens, UniProt P05177); experiment: Time dependent inhibition of CYP1A2 in pooled human liver microsomes using […] as substrate preincubated for 30 mins in presence of NADPH followed by substrate addition and measured after 10 mins by LC-MS/MS analysis; type: ADME, Microsome
T2 sequence (P05177 whole entry): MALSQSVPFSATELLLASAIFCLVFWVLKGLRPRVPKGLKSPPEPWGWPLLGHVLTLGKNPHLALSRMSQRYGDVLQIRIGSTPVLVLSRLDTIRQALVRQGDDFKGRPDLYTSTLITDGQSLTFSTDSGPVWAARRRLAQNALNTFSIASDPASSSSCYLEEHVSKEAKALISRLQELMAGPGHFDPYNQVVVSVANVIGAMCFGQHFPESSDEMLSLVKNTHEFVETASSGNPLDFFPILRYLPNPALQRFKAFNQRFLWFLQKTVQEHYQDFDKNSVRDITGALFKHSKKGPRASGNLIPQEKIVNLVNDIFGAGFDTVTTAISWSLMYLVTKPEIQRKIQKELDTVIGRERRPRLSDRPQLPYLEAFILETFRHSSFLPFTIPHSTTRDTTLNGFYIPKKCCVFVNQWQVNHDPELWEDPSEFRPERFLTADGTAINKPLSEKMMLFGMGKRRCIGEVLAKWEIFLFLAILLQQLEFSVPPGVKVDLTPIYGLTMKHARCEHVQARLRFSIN

[9] = Clearance in C57BL/6 mouse plasma at 2 mg/kg, iv; type: ADME, organism-based
[10] = Unbound AUC in C57BL/6 mouse plasma at 10 mg/kg, po by LC-MS/MS analysis; type: ADME, organism-based; details: in vivo
[11] = Unbound AUC in C57BL/6 mouse brain at 10 mg/kg, po by LC-MS/MS analysis; type: ADME, organism-based; details: in vivo
[12] = Oral bioavailability in C57BL/6 mouse at 10 mg/kg; type: ADME, organism-based; details: in vivo
[13] = target: RAC-alpha serine/threonine-protein kinase (Homo sapiens, UniProt P31749); experiment: Inhibition of AKT (unknown origin)
[14] = Inhibition of ROCK in rat A7R5 cells assessed as increase in AKT phosphorylation measured after 30 mins by alphaLISA Surefire multiplex assay; type: cell-based; details: A7R5, 0.5 h
[15] = Inhibition of ROCK in human PANC-1 cells assessed as decrease in MYPT1 phosphorylation at T850 residues measured after 1 hr by Western blot analysis; type: cell-based; details: PANC-1, 1 h
[16] = Ratio of unbound AUC in C57BL/6 mouse brain at 10 mg/kg, po to IC50 for Inhibition of ROCK in rat A7r5 cells; type: organism-based; details: in vivo
[17] = Hepatic extraction ratio in C57BL/6 mouse at 2 mg/kg, iv; type: ADME, organism-based; details: in vivo, read-out: ERH

Rho-associated protein kinase 2, sequence (O75116 whole entry, the tested form may be a part): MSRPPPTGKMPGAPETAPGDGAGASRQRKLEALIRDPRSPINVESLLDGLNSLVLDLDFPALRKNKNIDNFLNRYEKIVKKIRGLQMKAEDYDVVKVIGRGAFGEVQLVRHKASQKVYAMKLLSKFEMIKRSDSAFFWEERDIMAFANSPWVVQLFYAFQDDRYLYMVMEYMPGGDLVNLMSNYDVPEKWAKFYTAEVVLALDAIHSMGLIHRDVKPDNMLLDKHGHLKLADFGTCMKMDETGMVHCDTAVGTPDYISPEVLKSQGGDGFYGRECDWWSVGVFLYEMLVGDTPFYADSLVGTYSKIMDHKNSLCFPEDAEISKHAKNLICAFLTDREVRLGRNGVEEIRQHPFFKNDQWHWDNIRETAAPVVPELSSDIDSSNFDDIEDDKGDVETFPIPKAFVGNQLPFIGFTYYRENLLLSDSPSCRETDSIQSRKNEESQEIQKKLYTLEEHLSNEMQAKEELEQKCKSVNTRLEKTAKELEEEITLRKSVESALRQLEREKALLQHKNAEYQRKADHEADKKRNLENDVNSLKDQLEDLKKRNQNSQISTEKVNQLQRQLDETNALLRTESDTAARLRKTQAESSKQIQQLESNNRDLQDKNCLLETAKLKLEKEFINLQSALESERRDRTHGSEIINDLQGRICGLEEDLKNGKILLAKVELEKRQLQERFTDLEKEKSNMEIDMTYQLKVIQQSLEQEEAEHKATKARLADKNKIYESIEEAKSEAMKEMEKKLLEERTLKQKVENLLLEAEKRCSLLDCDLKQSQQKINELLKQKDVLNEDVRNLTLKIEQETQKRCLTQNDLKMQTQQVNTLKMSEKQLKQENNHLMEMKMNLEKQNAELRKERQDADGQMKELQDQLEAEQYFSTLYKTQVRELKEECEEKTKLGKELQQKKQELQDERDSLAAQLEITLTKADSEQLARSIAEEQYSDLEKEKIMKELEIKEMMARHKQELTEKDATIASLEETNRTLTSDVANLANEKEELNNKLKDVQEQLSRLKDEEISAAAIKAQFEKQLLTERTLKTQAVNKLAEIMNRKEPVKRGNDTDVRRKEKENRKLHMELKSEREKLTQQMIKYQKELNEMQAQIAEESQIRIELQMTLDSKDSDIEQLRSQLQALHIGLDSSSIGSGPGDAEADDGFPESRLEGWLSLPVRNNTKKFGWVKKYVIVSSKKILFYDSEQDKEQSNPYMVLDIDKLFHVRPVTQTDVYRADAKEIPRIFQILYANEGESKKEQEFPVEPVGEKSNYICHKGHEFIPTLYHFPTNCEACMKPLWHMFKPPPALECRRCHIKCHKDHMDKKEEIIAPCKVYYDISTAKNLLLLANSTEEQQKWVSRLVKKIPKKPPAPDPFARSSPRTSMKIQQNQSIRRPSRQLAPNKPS
RAC-alpha serine/threonine-protein kinase, sequence (P31749 whole entry): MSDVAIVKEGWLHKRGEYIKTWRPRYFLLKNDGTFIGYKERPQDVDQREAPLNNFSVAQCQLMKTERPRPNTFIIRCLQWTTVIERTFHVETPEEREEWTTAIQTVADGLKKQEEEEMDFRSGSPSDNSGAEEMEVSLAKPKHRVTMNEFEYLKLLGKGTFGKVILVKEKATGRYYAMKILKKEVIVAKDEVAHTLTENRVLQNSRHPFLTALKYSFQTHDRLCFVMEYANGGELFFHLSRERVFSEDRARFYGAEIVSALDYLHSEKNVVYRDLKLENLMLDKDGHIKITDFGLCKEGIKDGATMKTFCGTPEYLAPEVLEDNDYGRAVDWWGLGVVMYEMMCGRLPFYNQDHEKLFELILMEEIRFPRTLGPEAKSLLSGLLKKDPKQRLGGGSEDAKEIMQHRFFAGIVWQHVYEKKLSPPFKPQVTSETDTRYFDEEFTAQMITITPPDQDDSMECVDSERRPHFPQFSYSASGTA

Compound	pIC50 [1]	solubility kinetic at 2 h [2] [µM]	pIC50 [7]	pIC50 [8]	other results
COc1cccc([C@@H](C)NC(=O)N2CCN(c3ccncc3F)C[C@H]2C)c1F	6.49	150 (≈ 58.6 µg/mL)	4.29	–	chromatographic logD [3]: 2.3; logP [4]: 2.6; Papp at 1 h, 10 µM [5]: 79.7 ×10⁻⁶ cm/s; CLint scaled at 1 µM [6]: 79 mL/min/kg; efflux ratio at 1 h, 10 µM (MDR1): 1.3
COc1cccc(CC(=O)Nc2cc(-c3ccnc(F)c3)cs2)c1	6.08	17 (≈ 5.82 µg/mL)	–	7.82	chromatographic logD [3]: 2.83; logP [4]: 4.53
COc1cccc([C@@H](C)NC(=O)[C@@H]2CC[C@@H](c3ccncc3)C[C@@H]2C)c1	< 5.30	11 (≈ 3.88 µg/mL)	–	6.07	–
COc1cccc([C@@H](C)NC(=O)N2CCC(c3ccncc3F)CC2)c1	6.14	–	4.50	7.35	–
C[C@@H](N)[C@H]1CC[C@H](C(=O)Nc2ccncc2)CC1 [Y-27632]	5.52	–	–	–	chromatographic logD [3]: 1.03; logP [4]: 0.62
O=S(=O)(c1cccc2c(O)nccc12)N1CCCNCC1 [HYDROXYFASUDIL]	5.42	> 200	–	–	logP [4]: 1.43
CS(=O)(=O)Nc1cccc(CC(=O)Nc2cc(-c3ccnc(F)c3)cs2)c1	–	77 (≈ 31.2 µg/mL)	–	–	logP [4]: 3.45
COc1cccc([C@@H](C)NC(=O)N2CC[C@H](c3ccncc3)C[C@@H]2C)c1	5.48	–	4.31	5.79	–
COc1cccc([C@@H](C)NC(=O)[C@H]2CC[C@@H](c3ccncc3)CC2)c1	< 5.30	–	4.61	5.36	–
COc1cccc([C@@H](C)NC(=O)c2ccc(-c3ccnc(F)c3)cc2)c1	7.11	–	7.77	–	pIC50 [13]: 5.63
COc1cccc([C@@H](C)NC(=O)[C@H]2CC[C@H](c3ccncc3)C[C@H]2C)c1	6.02	130 (≈ 45.8 µg/mL)	4.47	7.35	Papp at 1 h, 10 µM [5]: 77.6 ×10⁻⁶ cm/s; CLint scaled at 1 µM [6]: 90 mL/min/kg; efflux ratio at 1 h, 10 µM (MDR1): 1.1
COc1cccc([C@@H](C)NC(=O)c2ccc(-c3ccnc(F)c3)nc2)c1	6.54	–	6.49	7.59	pIC50 [13]: 5.03; pEC50 [14]: 5.49; pIC50 [15]: 5.73
COc1cccc([C@@H](C)NC(=O)[C@H]2CC[C@H](c3ccncc3)CC2)c1	6.01	–	5.30	7.01	–
COc1cccc([C@@H](C)NC(=O)N2CCC(c3ccncc3)CC2)c1	6.17	–	4.28	7.13	–
COc1cccc([C@@H](C)NC(=O)c2ccc(-c3ccnc(F)c3)cn2)c1	5.99	–	–	7.30	–
COc1cccc([C@@H](C)NC(=O)N2CCN(c3ccncc3)C(=O)C2)c1	< 5.30	–	–	6.27	–
COc1cccc([C@@H](C)NC(=O)c2ccc(-c3ccnc(F)c3)nn2)c1	5.37	–	5.44	6.55	–
COc1cccc([C@@H](C)NC(=O)N2CCN(c3ccncc3)CC2)c1	5.84	–	–	5.32	–
COc1cccc([C@@H](C)NC(=O)N2CC[C@@H](c3ccncc3)C[C@@H]2C)c1	5.31	–	4.27	5.89	–
COc1cccc([C@@H](C)NC(=O)N2CCN(c3ccncn3)C[C@H]2C)c1	6.58	–	4.44	7.64	–

Now from value to molecule, other results behind:

pIC50 [1]	solubility kinetic at 2 h [2] [µM]	pIC50 [7]	pIC50 [8]	Compound	other results
6.79	120 (≈ 48.8 µg/mL)	4.94	–	COc1ccc(Cl)c([C@@H](C)NC(=O)N2CCN(c3ccncc3F)C[C@H]2C)c1	chromatographic logD [3]: 2.7; logP [4]: 3.3; Papp at 1 h, 10 µM [5]: 122 ×10⁻⁶ cm/s; CLint scaled at 1 µM [6]: 199 mL/min/kg
7.48	–	5.63	8.52	COc1cc([C@@H](C)NC(=O)N2CCN(c3ccncc3F)C[C@H]2C)ccc1F	–
6.90	–	5.74	8.15	COc1cccc([C@@H](C)NC(=O)N2CCN(c3ccncc3F)CC2)c1	–
7.36	–	7.41	8.40	COc1cccc([C@@H](C)NC(=O)c2ccc(-c3ccncc3)nc2)c1	–
7.82	140 (≈ 54.7 µg/mL)	5.77	–	COc1cc(F)cc([C@@H](C)NC(=O)N2CCN(c3ccncc3F)C[C@H]2C)c1	chromatographic logD [3]: 2.4; logP [4]: 2.7; Papp at 1 h, 10 µM [5]: 98.4 ×10⁻⁶ cm/s; CLint scaled at 1 µM [6]: < 65 mL/min/kg; pIC50 (Cytochrome P450 1A2): 5.96; clearance [9]: 85 mL/min/kg; fAUC [10]: 30 nM·kg·h/mg; fAUC [11]: 40 nM·kg·h/mg; bioavailability [12]: 78%
7.74	–	5.09	–	C[C@@H]1CN(c2ccncc2F)CCN1C(=O)N[C@H](C)c1cccc2nccn12	–
6.97	–	4.88	8.15	COc1ccc(F)c([C@@H](C)NC(=O)N2CCN(c3ccncc3F)C[C@H]2C)c1	–
7.15	–	4.64	8.05	COc1cccc([C@@H](C)NC(=O)N2CC[C@H](c3ccncc3)C[C@H]2C)c1	–
6.60	–	4.71	7.46	COc1cccc([C@@H](C)NC(=O)N2CC[C@@H](c3ccncc3)C[C@H]2C)c1	–
7.85	> 200	5.18	8.70	C[C@@H]1CN(c2ccncc2F)CCN1C(=O)N[C@H](C)c1cccn2nccc12	chromatographic logD [3]: 1.6; logP [4]: 2.1; Papp at 1 h, 10 µM [5]: 104 ×10⁻⁶ cm/s; CLint scaled at 1 µM [6]: 169 mL/min/kg; efflux ratio at 1 h, 10 µM (MDR1): 3.7
6.91	170 (≈ 63.3 µg/mL)	4.72	8.22	COc1cccc([C@@H](C)NC(=O)N2CCN(c3ccnc(F)c3)C[C@H]2C)c1	Ratio [16]: 0.2; Papp at 1 h, 10 µM [5]: 58.1 ×10⁻⁶ cm/s; CLint scaled at 1 µM [6]: 103 mL/min/kg; pIC50 (Cytochrome P450 1A2): < 5.00; clearance [9]: 28.3 mL/min/kg; hepatic extraction ratio [17]: 0.31; fAUC [10]: 100 nM·kg·h/mg; fAUC [11]: 30 nM·kg·h/mg; bioavailability [12]: 36%; efflux ratio at 1 h, 10 µM (MDR1): 2.8
